Values joined by “and” are separate entries in the source; they are usually repeats but may differ in a detail not shown here. Identical values can stand only once.
Test system: 695427-040-R-J1-PDC complex spheroid viability
Assay: Anticancer human tumor 695427-040-R-J1-PDC patient-derived colon adenocarcinoma cell line growth inhibition [RAS]
Settings: for viability, T/C: stronger effect = lower value; active means viability on the fitted dose curve at most 10% of control; inactive means the rest
Outline: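 Tumour cells grown as complex spheroids with HUVEC endothelial cells and mesenchymal stem cells, treated with RAS pathway inhibitor combinations. Each agent spans half-log steps from near clinical Cmax, or 10 microM where Cmax is unknown.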

[1] = curve of first compound, second compound 0.00316 µM
[2] = curve of first compound, second compound 0.01 µM
[3] = curve of first compound, second compound 0.0316 µM
[4] = curve of first compound, second compound 0.1 µM
[5] = curve of first compound, second compound 0.316 µM
[6] = curve of first compound, second compound 1 µM
[7] = second compound 0.00316 µM, first compound 0.0316 µM
[8] = second compound 0.00316 µM, first compound 0.1 µM
[9] = second compound 0.00316 µM, first compound 0.316 µM
[10] = second compound 0.00316 µM, first compound 1 µM
[11] = second compound 0.00316 µM, first compound 3.16 µM
[12] = second compound 0.00316 µM, first compound 10 µM
[13] = second compound 0.01 µM, first compound 0.0316 µM
[14] = second compound 0.01 µM, first compound 0.1 µM
[15] = second compound 0.01 µM, first compound 0.316 µM
[16] = second compound 0.01 µM, first compound 1 µM
[17] = second compound 0.01 µM, first compound 3.16 µM
[18] = second compound 0.01 µM, first compound 10 µM
[19] = second compound 0.0316 µM, first compound 0.0316 µM
[20] = second compound 0.0316 µM, first compound 0.1 µM
[21] = second compound 0.0316 µM, first compound 0.316 µM
[22] = second compound 0.0316 µM, first compound 1 µM
[23] = second compound 0.0316 µM, first compound 3.16 µM
[24] = second compound 0.0316 µM, first compound 10 µM
[25] = second compound 0.1 µM, first compound 0.0316 µM
[26] = second compound 0.1 µM, first compound 0.1 µM
[27] = second compound 0.1 µM, first compound 0.316 µM
[28] = second compound 0.1 µM, first compound 1 µM
[29] = second compound 0.1 µM, first compound 3.16 µM
[30] = second compound 0.1 µM, first compound 10 µM
[31] = second compound 0.316 µM, first compound 0.0316 µM
[32] = second compound 0.316 µM, first compound 0.1 µM
[33] = second compound 0.316 µM, first compound 0.316 µM
[34] = second compound 0.316 µM, first compound 1 µM
[35] = second compound 0.316 µM, first compound 3.16 µM
[36] = second compound 0.316 µM, first compound 10 µM
[37] = second compound 1 µM, first compound 0.0316 µM
[38] = second compound 1 µM, first compound 0.1 µM
[39] = second compound 1 µM, first compound 0.316 µM
[40] = second compound 1 µM, first compound 1 µM
[41] = second compound 1 µM, first compound 3.16 µM
[42] = second compound 1 µM, first compound 10 µM
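Further: viability read after seven days of drug exposure.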
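Wherever viability, T/C is given: 100% = DMSO vehicle control viability.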

CC(=O)OC12COC1CC(O)C1(C)C(=O)C(O)C3=C(C)C(OC(=O)C(O)C(NC(=O)OC(C)(C)C)c4ccccc4)CC(O)(C(OC(=O)c4ccccc4)C21)C3(C)C (stereo not drawn) + C=CC(=O)N1CCN(c2nc(OCC3CCCN3C)nc3c(F)c(-c4nc(N)cc(C)c4C(F)(F)F)c(Cl)cc23)C(C)C1
inactive: viability, T/C [7] 67.3% | viability, T/C [8] 69% | viability, T/C [9] 74.2% | viability, T/C [10] 78.9% | viability, T/C [11] 91.5% | viability, T/C [12] 98% | viability, T/C [13] 71.8% | viability, T/C [14] 66.8% | viability, T/C [15] 71% | viability, T/C [16] 79.7% | viability, T/C [17] 93% | viability, T/C [18] 89.3% | viability, T/C [19] 71% | viability, T/C [20] 72.8% | viability, T/C [21] 77.2% | viability, T/C [22] 78% | viability, T/C [23] 83.7% | viability, T/C [24] 89.5% | viability, T/C [25] 70.6% | viability, T/C [26] 71.3% | viability, T/C [27] 74% | viability, T/C [28] 76.2% | viability, T/C [29] 93.6% | viability, T/C [30] 96.9% | viability, T/C [31] 75.2% | viability, T/C [32] 73.6% | viability, T/C [33] 83.8% | viability, T/C [34] 75% | viability, T/C [35] 93.1% | viability, T/C [36] 95.7% | viability, T/C [37] 76.4% | viability, T/C [38] 68.5% | viability, T/C [39] 77.3% | viability, T/C [40] 83.4% | viability, T/C [41] 88.7% | viability, T/C [42] 91.8%
> 10000 nM: IC50 [1] | IC50 [2] | IC50 [3] | IC50 [4] | IC50 [5] | IC50 [6]

CC1(C)CCC(Nc2ncc(C(F)(F)F)c(-c3c[nH]c4c(P(C)(C)=O)c(C#N)ccc34)n2)CN1 (stereo not drawn)
> 300 nM: IC50 (curve of compound)
inactive: viability, T/C (compound 0.000949 µM) 95.8% [middle of 4 runs] | viability, T/C (compound 0.003 µM) 89.1% [middle of 4 runs] | viability, T/C (compound 0.00949 µM) 92.5% and 92.7% and 87.3% (2×) | viability, T/C (compound 0.03 µM) 87.3% [middle of 4 runs] | viability, T/C (compound 0.0949 µM) 87.8% [middle of 4 runs] | viability, T/C (compound 0.3 µM) 76.5% [middle of 4 runs]

CC(C)n1nc(-c2ccc3oc(N)nc3c2)c2c(N)ncnc21 + CCn1c(-c2cc(N3CCN(C)CC3)cnc2C(C)OC)c2c3cc(ccc31)-c1csc(n1)CC(NC(=O)C1CC1C)C(=O)N1CCCC(N1)C(=O)OCC(C)(C)C2
inactive: viability, T/C (second compound 0.000949 µM, first compound 0.000316 µM) 100% | viability, T/C (second compound 0.000949 µM, first compound 0.001 µM) 86.4% | viability, T/C (second compound 0.000949 µM, first compound 0.00316 µM) 80.3% | viability, T/C (second compound 0.000949 µM, first compound 0.01 µM) 81.2% | viability, T/C (second compound 0.000949 µM, first compound 0.0316 µM) 68.6% | viability, T/C (second compound 0.000949 µM, first compound 0.1 µM) 42% | viability, T/C (second compound 0.003 µM, first compound 0.000316 µM) 98.5% | viability, T/C (second compound 0.003 µM, first compound 0.001 µM) 84.8% | viability, T/C (second compound 0.003 µM, first compound 0.00316 µM) 71.8% | viability, T/C (second compound 0.003 µM, first compound 0.01 µM) 68.1% | viability, T/C (second compound 0.003 µM, first compound 0.0316 µM) 66.5% | viability, T/C (second compound 0.003 µM, first compound 0.1 µM) 51.1% | viability, T/C (second compound 0.00949 µM, first compound 0.000316 µM) 93.3% | viability, T/C (second compound 0.00949 µM, first compound 0.001 µM) 68.5% | viability, T/C (second compound 0.00949 µM, first compound 0.00316 µM) 70% | viability, T/C (second compound 0.00949 µM, first compound 0.01 µM) 59.1% | viability, T/C (second compound 0.00949 µM, first compound 0.0316 µM) 46.4% | viability, T/C (second compound 0.00949 µM, first compound 0.1 µM) 46.8% | viability, T/C (second compound 0.03 µM, first compound 0.000316 µM) 74.3% | viability, T/C (second compound 0.03 µM, first compound 0.001 µM) 45.1% | viability, T/C (second compound 0.03 µM, first compound 0.00316 µM) 55.8% | viability, T/C (second compound 0.03 µM, first compound 0.01 µM) 48.6% | viability, T/C (second compound 0.03 µM, first compound 0.0316 µM) 39.2% | viability, T/C (second compound 0.03 µM, first compound 0.1 µM) 28.7% | viability, T/C (second compound 0.0949 µM, first compound 0.000316 µM) 47.6% | viability, T/C (second compound 0.0949 µM, first compound 0.001 µM) 38.6% | viability, T/C (second compound 0.0949 µM, first compound 0.00316 µM) 35.4% | viability, T/C (second compound 0.0949 µM, first compound 0.01 µM) 32.8% | viability, T/C (second compound 0.0949 µM, first compound 0.0316 µM) 30% | viability, T/C (second compound 0.0949 µM, first compound 0.1 µM) 21.3% | viability, T/C (second compound 0.3 µM, first compound 0.000316 µM) 41% | viability, T/C (second compound 0.3 µM, first compound 0.001 µM) 34.8% | viability, T/C (second compound 0.3 µM, first compound 0.00316 µM) 27.3% | viability, T/C (second compound 0.3 µM, first compound 0.01 µM) 28.2% | viability, T/C (second compound 0.3 µM, first compound 0.0316 µM) 22.6% | viability, T/C (second compound 0.3 µM, first compound 0.1 µM) 15.7%
34.2 nM: IC50 (curve of first compound, second compound 0.00949 µM)
> 100 nM: IC50 (curve of first compound, second compound 0.003 µM)
< 0.316 nM: IC50 (curve of first compound, second compound 0.0949 µM) | IC50 (curve of first compound, second compound 0.3 µM)
4.03 nM: IC50 (curve of first compound, second compound 0.03 µM)
71.9 nM: IC50 (curve of first compound, second compound 0.000949 µM)

CC(Nc1ccc2c(c1)OCCn1cc(N3C(=O)OCC3C(F)F)nc1-2)C(N)=O (stereo not drawn) + C=CC(=O)N1CCN(c2nc(OCC3CCCN3C)nc3c(F)c(-c4nc(N)cc(C)c4C(F)(F)F)c(Cl)cc23)C(C)C1
838 nM: IC50 [2]
2030 nM: IC50 [6]
inactive: viability, T/C [7] 89.6% | viability, T/C [8] 68.5% | viability, T/C [9] 62.4% | viability, T/C [10] 54.2% | viability, T/C [11] 46.8% | viability, T/C [12] 36.2% | viability, T/C [13] 95.5% | viability, T/C [14] 75.5% | viability, T/C [15] 56.5% | viability, T/C [16] 50.2% | viability, T/C [17] 43.5% | viability, T/C [18] 41.1% | viability, T/C [19] 90.7% | viability, T/C [20] 76.7% | viability, T/C [21] 65.2% | viability, T/C [22] 51.2% | viability, T/C [23] 47% | viability, T/C [24] 38.4% | viability, T/C [25] 85.2% | viability, T/C [26] 71% | viability, T/C [27] 64.3% | viability, T/C [28] 50.4% | viability, T/C [29] 49.6% | viability, T/C [30] 43.3% | viability, T/C [31] 87.2% | viability, T/C [32] 73.2% | viability, T/C [33] 66.2% | viability, T/C [34] 55.9% | viability, T/C [35] 50.8% | viability, T/C [36] 44.4% | viability, T/C [37] 85.6% | viability, T/C [38] 71% | viability, T/C [39] 68% | viability, T/C [40] 52% | viability, T/C [41] 47.8% | viability, T/C [42] 40.8%
2010 nM: IC50 [4]
1580 nM: IC50 [3]
3130 nM: IC50 [5]
1470 nM: IC50 [1]

— PubChem BioAssay AID2060888 (Molecular Pharmacology Branch, DTP, NCI, 2025)
